Assay results as given in publication PMC4457826 (PLoS Pathogens, 2015).
No end group written: not given here.

Legend:
USP7-CTD = biological target: T1, USP7-CTD (Homo sapiens, UniProt Q93009); experiment: GST pull-down, USP7-CTD; format: binding
T1 construct: USP7-CTD (535–1102); His tag (inferred from nickel-NTA purification; vector p15TV-L); made in house; host or cells: E. coli BL21(DE3)mgk
Description: (§1) Fragments representing USP7-CTD Ubl domains were prepared using ligation independent cloning with In-Fusion (Clontech) in p15TV-L. The boundaries of the Ubl domain constructs are Ubl12 (535–776), Ubl123 (535–889), Ubl345 (776–1102), Ubl45 (886–1102) and USP7-CTD (535–1102). Plasmids expressing USP7-NTD, USP7, and myc-USP7 WT (pCANmycUSP7) were described previously. USP7 mutants E759A, D762A, D764A and D762A/D764A in Ubl123 were synthesized (Genscript) and inserted into the pET15b plasmid. USP7 mutants E759A, D762A, D764A, D762A/D764A and D762R/D764R in USP7-CTD were prepared by ACGT Corporation. The D762R/D764R mutant was then sub-cloned into wild-type pCANmycUSP7 for co-IP assays. The mammalian ICP0 expression construct pCI-110 ICP0 was obtained from Roger Everett.
(§2) The ICP0, GMPS and UHRF1 WT and mutant peptides were cloned into pGEX-2TK and expressed in E. coli BL21(DE3). GST-ICP0 594–775 was obtained from Roger Everett. The GST-ICP0 or GST-GMPS or GST-UHRF1 or GST-ICP0 594–775 cell pellets from 500 ml of LB broth were re-suspended with PBS and lysed using sonication. The cleared lysates were applied to 500 μl of equilibrated glutathione-sepharose beads and incubated with rocking for 60 min at 4°C. Unbound proteins were removed by washing with PBS. Bound proteins were eluted with 50 mM Tris pH 8.0 and 100 mM NaCL containing 30 mM reduced glutathione. Equal amounts (250 μg) of the various USP7 proteins were incubated with 250 μg of the GST-ICP0 or GST-GMPS or GST-UHRF1 or GST-ICP0 594–775 peptides in 50 mM Tris pH 8.0, 100 mM NaCl, 5 mM DTT, 5% glycerol, 0.1 mM Benzamidine and 0.05 mM PMSF, applied to equilibrated glutathione-sepharose beads and incubated overnight with rocking at 4°C. After extensive washing, bound proteins were eluted with 50 mM Tris pH 8.0 and 100 mM NaCl containing 30 mM reduced glutathione.

FL-USP7 = experiment: GST pull-down, USP7-FL; format: binding, human; settings: GST fusions 250 μg + USP7 250 μg, 50 mM Tris pH 8.0, 100 mM NaCl, 5 mM DTT, 5% glycerol, overnight 4°C; Coomassie stained gel; Fig 1A/1C; symbols not defined
Description: The USP7 binding region is found within ICP0 residues 594–633 and mutagenesis studies have shown that K620 is essential for the interaction. In order to facilitate crystallization and structure determination, we set out to identify a shorter peptide that is capable of binding to USP7. To this end, a series of overlapping GST-ICP0 fusions (591–605, 595–609, 599–613, 603–617, 607–621, 611–625, 615–629, 619–633) were prepared (see Fig 1A for sequence details) and used in GST pull-down assays. […] Overall, our GST pull-down assays identified ICP0 residues between 619 and 629 as important mediators of USP7 binding in agreement with a previous study.
Next we determined which region of USP7-CTD interacted with the ICP0 615–629 peptide. FL-USP7, USP7-CTD as well as Ubl12, Ubl123, Ubl345 and Ubl45 (Fig 1B) were used as prey in GST pull-down assays using GST-ICP0 615–629. FL-USP7 and USP7-CTD were used as positive controls while GST alone and USP7-NTD were used as negative controls.
as §2

[1] = test system: USP7-CTD mutant D762A/D764A; experiment: GST pull-down, USP7-CTD D762A/D764A; format: binding, human
Description: as §1, §2

USP7-CTD mutant D764A = experiment: GST pull-down, USP7-CTD D764A; format: binding, human
Description: as §1
The ICP0, GMPS and UHRF1 WT and mutant peptides were cloned into pGEX-2TK and expressed in E. coli BL21(DE3). GST-ICP0 594–775 was obtained from Roger Everett. The GST-ICP0 or GST-GMPS or GST-UHRF1 or GST-ICP0 594–775 cell pellets from 500 ml of LB broth were re-suspended with PBS and lysed using sonication. The cleared lysates were applied to 500 μl of equilibrated glutathione-sepharose beads and incubated with rocking for 60 min at 4°C. Unbound proteins were removed by washing with PBS. Bound proteins were eluted with 50 mM Tris pH 8.0 and 100 mM NaCL containing 30 mM reduced glutathione. […]

USP7-CTD mutant D762A = experiment: GST pull-down, USP7-CTD D762A; format: binding, human
Description: as §1, §2

myc-tagged WT USP7 = experiment: Co-immunoprecipitation with myc-tagged WT USP7 from 293T cells; format: cell-based, human; settings: anti-myc IP, endogenous protein, Western blot, Fig 5B
Description: (§3) 293T cells were grown in Dulbecco’s modified Eagle’s medium (DMEM) (Gibco) with 10% fetal calf serum. 293T cells at 70% confluence in a 10-cm-diameter dish were transfected with 10 μg pCANmycUSP7 expressing WT USP7 or D762R/D764R (MRGR) USP7 or with pcDNA3.1 (negative control), in each case using 20 μl PolyJet (SignaGen Laboratories) transfection reagent. Cells were transferred to a 15-cm-diameter dish 24 h post-transfection and harvested 48 h post-transfection. For experiments on USP7-ICP0 interactions, 293T cells were co-transfected with 1 μg pCANmycUSP7 expressing WT or D762R/D764R (MRGR) USP7 and either 1 μg pCI-110 ICP0 or 1 μg pcDNA3.1. For controls lacking USP7, 1 μg pCI-110 ICP0 was co-transfected with 1 μg pcDNA3.1. In each case 4 μl PolyJet (SignaGen Laboratories) transfection reagent was used.
Protein samples were subjected to SDS-PAGE and transferred to nitrocellulose. […]
293T cells transfected as described above were washed in phosphate-buffered saline (PBS) and lysed on ice for 45 min in a 4x volume of RIPA buffer (50 mM Tris-HCl [pH 8], 150 mM NaCl, 0.1% sodium deoxycholate, 0.5% NP-40) with complete protease inhibitors (Sigma P8340), followed by centrifugation. […] Immunoprecipitated proteins were separated by SDS-PAGE and analyzed by Western blotting, as described above.

[2] = test system: myc-tagged D762R/D764R (MRGR) USP7; experiment: Co-immunoprecipitation with myc-tagged D762R/D764R (MRGR) USP7 from 293T cells; format: cell-based, human; settings: anti-myc IP
Description: as §3
Protein samples were subjected to SDS-PAGE and transferred to nitrocellulose. Membranes were blocked in 5% skim milk in Tris-buffered saline with 1% Tween (TBS-T) and then incubated with antibodies against ICP0 (H1A027 from Virusys Corporation; 1:5000 dilution), myc (sc-40 from Santa Cruz Biotechnology; 1:5000 dilution), NP95/UHRF1 (A301-470A from Bethyl Laboratories; 1:1000 dilution), GMPS (rabbit serum raised against full-length GMPS [17]; 1:5000 dilution) and actin (MA5-15739 from Pierce; 1:20,000 dilution). After washing, blots were probed with goat anti-mouse or goat anti-rabbit peroxidase (Santa Cruz Biotechnology; 1:5000 dilution) and developed using chemiluminescence reagents (Santa Cruz biotechnology).
293T cells transfected as described above were washed in phosphate-buffered saline (PBS) and lysed on ice for 45 min in a 4x volume of RIPA buffer (50 mM Tris-HCl [pH 8], 150 mM NaCl, 0.1% sodium deoxycholate, 0.5% NP-40) with complete protease inhibitors (Sigma P8340), followed by centrifugation. 1 mg of each clarified lysate was incubated with 1 μg of anti-myc antibody for 1h, followed by incubation with 30 μl of A/G PLUS agarose resin (Santa Cruz Biotechnology) for 2 h at 4°C with end-over-end rotation. The resin was harvested by centrifugation, washed in RIPA buffer, and then boiled in SDS loading buffer. Immunoprecipitated proteins were separated by SDS-PAGE and analyzed by Western blotting, as described above.

USP7 Ubl123 = biological target: T2, USP7 Ubl123 (Homo sapiens, UniProt Q93009); experiment: GST pull-down, Ubl123; format: binding; settings: mutations within ICP0 615–629, Fig 3D
T2 construct: Ubl123 (535–889); His tag (inferred from nickel-NTA purification; vector p15TV-L); made in house; host or cells: E. coli BL21(DE3)mgk
Description: as §1, §2

T2 sequence (Q93009 535-889): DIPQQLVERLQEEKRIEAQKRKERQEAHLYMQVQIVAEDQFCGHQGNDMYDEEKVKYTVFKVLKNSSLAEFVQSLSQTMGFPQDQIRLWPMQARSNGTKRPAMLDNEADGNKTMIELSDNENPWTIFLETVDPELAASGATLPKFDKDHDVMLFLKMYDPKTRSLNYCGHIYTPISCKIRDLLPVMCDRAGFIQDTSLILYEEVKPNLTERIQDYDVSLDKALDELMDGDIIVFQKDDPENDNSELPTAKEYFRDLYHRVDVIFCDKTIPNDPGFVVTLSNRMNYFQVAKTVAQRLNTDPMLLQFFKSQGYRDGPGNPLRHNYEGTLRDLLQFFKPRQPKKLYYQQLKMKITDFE
T1 sequence (Q93009 535-1102): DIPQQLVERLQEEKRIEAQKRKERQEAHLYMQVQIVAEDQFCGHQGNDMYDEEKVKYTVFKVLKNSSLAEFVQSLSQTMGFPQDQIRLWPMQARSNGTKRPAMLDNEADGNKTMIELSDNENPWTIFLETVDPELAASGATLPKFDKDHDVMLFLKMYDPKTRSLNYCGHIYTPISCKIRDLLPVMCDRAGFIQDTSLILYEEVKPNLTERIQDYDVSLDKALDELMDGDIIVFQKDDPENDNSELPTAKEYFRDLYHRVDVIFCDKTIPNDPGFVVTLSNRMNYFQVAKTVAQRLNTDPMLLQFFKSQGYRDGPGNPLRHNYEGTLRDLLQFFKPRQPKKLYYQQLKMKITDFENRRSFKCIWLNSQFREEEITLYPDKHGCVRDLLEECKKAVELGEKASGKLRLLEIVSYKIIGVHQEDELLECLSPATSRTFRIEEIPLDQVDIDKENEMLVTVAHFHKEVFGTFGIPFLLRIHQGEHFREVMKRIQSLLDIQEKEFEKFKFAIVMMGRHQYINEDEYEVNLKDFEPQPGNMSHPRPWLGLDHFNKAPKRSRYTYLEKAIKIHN

For “AASGPRGPRKCARKT [ICP0 611–625, GST-ICP0 fusion of ICP0 residues 611–625]”, which “Interaction with USP7-CTD (overlapping GST-ICP0 peptides)” value (USP7-CTD; GST fusions 250 μg + USP7-CTD 250 μg, 50 mM Tris pH 8.0, 100 mM NaCl, 5 mM DTT, 5% glycerol, overnight 4°C, Coomassie stained gel, Fig 1A/1D, symbols not defined) is on record?
The value was “interacted with FL-USP7 and USP7-CTD but not to the same extent”.

What about the “Interaction with USP7-FL (overlapping GST-ICP0 peptides)” value (FL-USP7) of the same substance?
Its value is “interacted with FL-USP7 and USP7-CTD but not to the same extent”.

“DRTPRKRISKTLN [GST-GMPS peptide, GST fusion of GMPS residues 316–328]” was tested. Which “Binding to WT USP7-CTD” value (USP7-CTD; GST pull-down, GST-ICP0 594–775, GST-GMPS and GST-UHRF1 peptides and mutants, Fig 3H, 4C-F) did it give?
The value was “interacted with USP7-CTD”.

What about the “Binding to USP7-CTD mutant D762A/D764A” value [1] of the same substance?
The value was “disrupted binding”.

And the “Binding to USP7-CTD mutant D764A” value (USP7-CTD mutant D764A)?
Its value is “disrupted binding”.

What about the “Binding to USP7-CTD mutant D762A” value (USP7-CTD mutant D762A) of the same substance?
The value was “disrupted binding”.

With “GMPS: endogenous GMP synthase in 293T cells” as the substance, how does the “recovery with WT USP7 (co-IP)” value (myc-tagged WT USP7) read?
The value was “efficiently recovered”.

What about the “binding relative to recovery with WT USP7” value ([2]; D762R/D764R mutant, endogenous protein, multiple experiments, Fig 5B) of the same substance?
The value was 35% (± 16%).

And the “recovery with D762R/D764R USP7 (co-IP), in words” value ([2]; Western blot, Fig 5)?
The value was “significantly decreased”.

How did the “Binding of mutant GST-ICP0 peptides to Ubl123” value (from here on “Binding … to Ubl123”) (USP7 Ubl123) turn out when “K620A (PRGPRACARKTRHAE; also: GST fusion partner not in chain)” was run?
Its value is “lacked detectable binding”.

How did the “Binding … to Ubl123” value (USP7 Ubl123) turn out when “K620A/K624A (PRGPRACARATRHAE; also: GST fusion partner not in chain)” was run?
Its value is “lacked detectable binding”.

“K624A (PRGPRKCARATRHAE; also: GST fusion partner not in chain)” was tested. Which “Binding … to Ubl123” value (USP7 Ubl123) did it give?
The value was “lacked detectable binding”.
